Measured values taken from patent US4465685A, “Antiinflammatory pyrazole thioureas” (Burroughs Wellcome Co., priority 1980, dated 1984).
pIC50: −log10 of the molar value.

Key:
lipoxygenase = experiment: enzyme assay (Blackwell and Flower), inhibition of lipoxygenase; format: biochemical; conditions: read-out: ED50 Lipoxygenase
cyclo-oxygenase = experiment: enzyme assay (Blackwell and Flower), inhibition of cyclo-oxygenase; format: biochemical; conditions: read-out: ED50 Cyclo-oxygenase

| pIC50 (lipoxygenase) | pIC50 (cyclo-oxygenase) | SMILES |
| --- | --- | --- |
| 5.52 | 5.52 | CNC(=O)NC1=NN(c2cccc(C(F)(F)F)c2)CC1 [Example 2, 3-(N^2-methylureido)-1-(3-trifluoromethylphenyl)-2-pyrazoline] |
| 6.00 | 6.00 | CNC(=S)NC1=NN(c2cccc(C(F)(F)F)c2)CC1 [Example 3, 3-(N^2-methylthioureido)-1-(3-trifluoromethylphenyl)-2-pyrazoline] |
| 6.00 | 6.00 | CN=C(NC1=NN(c2cccc(C(F)(F)F)c2)CC1)SC [Example 5, 3-(N^2,S-dimethylisothioureido)-1-(3-trifluoromethylphenyl)-2-pyrazoline hydriodide monohydrate] |
| 5.52 | 5.30 | CNC(=S)NC1=NN(c2ccc(Cl)cc2)CC1 [Example 6, 3-(3-methylthioureido)-1-(4-chlorophenyl)-2-pyrazoline] |
| 5.00 | 5.00 | CCCCNC(=S)NC1=NN(c2cccc(C(F)(F)F)c2)CC1 [Example 8, 3-(3-butylthioureido)-1-(3-trifluoromethylphenyl)-2-pyrazoline] |
| 5.00 | 5.00 | CNC(=S)NC1=NN(c2cnc3ccccc3c2)CC1 [Example 13, 3-(3-Methylthioureido)-1-(3-quinolyl)-2-pyrazoline] |
| 6.00 | 6.00 | CN=C(NC1=NN(c2ccc3ccccc3c2)CC1)SC [Example 17, N^1,S-Dimethyl-N^2 -/1-(2-naphthyl)-2-pyrazolin-3-yl/isothiourea hydriodide] |

Continued, compound first:

| SMILES | pIC50 (lipoxygenase) | pIC50 (cyclo-oxygenase) |
| --- | --- | --- |
| O=C(NC1=NN(c2cccc(C(F)(F)F)c2)CC1)Nc1ccccc1 [Example 1, 3-(N^2-phenylureido)-1-(3-trifluoromethylphenyl)-2-pyrazoline] | 5.00 to 5.30 | 5.52 |
| CN=C(NC1=NN(c2ccc(Cl)cc2)CC1)SC [Example 9, N,S-dimethyl-N^2 -/1-(4-chlorophenyl)-2-pyrazoline-3-yl/isothiourea hydriodide] | 5.00 | 5.00 |
| CNC(=S)NC1=NN(c2ccc3ccccc3c2)CC1 [Example 10, 3-(3-methylthioureido)-1-(2-naphthyl)-2-pyrazoline] | 6.00 | 6.60 |
| CNC(=S)NC1=NN(c2ccccc2Cl)CC1 [Example 14, 1-(2-Chlorophenyl)-3-(3-methylthioureido)-2-pyrazoline] | 5.00 | 5.00 |
